Experimental data reported in patent publication US11667602B2, “Compounds and their use” (AstraZeneca AB, priority 2020, dated 2023).
In brackets after ≈: the same amount, converted by molar mass.

Columns and labels:
[1] = Human Plasma Protein Binding (Test B); type: in vitro ADME; details: fraction unbound (fu)
Procedure, shortened: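 Values given as % free (fu) in human plasma, using the method of Wernevik et al. (2020). For compounds tested more than once, the arithmetic mean is given.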

[2] = Human Liver Microsomal Stability (Test C); type: in vitro ADME; details: human, liver microsomes
Procedure, shortened: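 CLint (μl/min/mg protein) derived from compound depletion in human liver microsomes following a published standardized early-DMPK protocol; replicate determinations given as arithmetic mean.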

[3] = Rat Hepatocyte Stability (Test E); type: in vitro ADME; details: rat, hepatocytes, geometric mean if run multiple times
Procedure, shortened: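 Intrinsic clearance in rat hepatocytes, expressed as μl/min/10^6 cells, following the literature integrated DMPK panel method. Repeat determinations combined as geometric mean.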

[4] = Solubility (Test F); type: physicochemical; details: arithmetic mean if run multiple times
Experimental: The assay was conducted according to the Solubility Assay described in pages 164-167 of Wernevik, J. et al., “A Fully Integrated Assay Panel for Early Drug Metabolism and Pharmacokinetics Profiling”, Assay and Drug Development Technologies, 2020, 18(4), 157-179. Data are reported in Table 36 as solubility ([…]. Where the assay was run multiple times for the same compound, the arithmetic mean is reported.

[5] = target: T1, human RXFP1 (Homo sapiens, UniProt Q9HBX9); experiment: RXFP1 Hu cAMP (Test A); type: cell-based; design: expressed in transfected cells; host or cells: Jump-In T-REx CHO-K1 cells (ThermoFisher), induced with 10 ng/ml doxycycline for 24 h; details: RXFP1 Hu cAMP; for EC50: read-out: Test A EC50
T1 sequence (Q9HBX9 1-757): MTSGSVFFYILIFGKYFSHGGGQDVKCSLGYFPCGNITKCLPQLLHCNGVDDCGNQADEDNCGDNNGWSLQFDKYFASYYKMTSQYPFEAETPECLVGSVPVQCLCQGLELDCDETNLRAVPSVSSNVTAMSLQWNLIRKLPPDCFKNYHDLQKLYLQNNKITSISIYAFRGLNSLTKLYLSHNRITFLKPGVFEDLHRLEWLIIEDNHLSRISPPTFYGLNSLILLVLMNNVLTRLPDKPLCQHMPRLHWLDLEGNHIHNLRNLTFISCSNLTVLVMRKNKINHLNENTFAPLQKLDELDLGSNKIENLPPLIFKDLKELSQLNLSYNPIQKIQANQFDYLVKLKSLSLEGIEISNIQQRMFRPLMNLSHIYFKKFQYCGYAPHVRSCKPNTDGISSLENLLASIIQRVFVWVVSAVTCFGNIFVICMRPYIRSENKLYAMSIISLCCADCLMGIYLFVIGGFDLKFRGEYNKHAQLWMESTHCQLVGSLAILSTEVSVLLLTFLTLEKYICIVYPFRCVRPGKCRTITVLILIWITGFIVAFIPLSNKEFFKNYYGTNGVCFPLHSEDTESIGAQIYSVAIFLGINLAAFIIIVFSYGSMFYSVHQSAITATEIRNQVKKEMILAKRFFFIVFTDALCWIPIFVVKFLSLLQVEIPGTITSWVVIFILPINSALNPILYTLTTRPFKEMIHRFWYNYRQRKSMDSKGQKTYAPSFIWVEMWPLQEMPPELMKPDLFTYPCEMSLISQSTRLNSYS
Procedure, shortened: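 Competitive HTRF cAMP readout (2 h, room temperature) in CHO-K1 cells stably expressing human RXFP1, induced with 10 ng/ml doxycycline for 24 h; IBMX 0.5 mM final.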

| Compound | Test B Human Plasma Protein Binding (% free) [1] [% free] | microsomal CLint [2] [µL/min/mg] | hepatocyte CLint [3] [µL/min/1e6 cells] | solubility [4] [µM] | Test A Sinf [5] [%] | EC50 [5] [nM] |
| --- | --- | --- | --- | --- | --- | --- |
| COc1cc(F)c(-c2ccc(OC(C)(C)C(=O)O)cc2)cc1C(=O)N[C@@H]1[C@H]2CC[C@H](C2)[C@@H]1C(=O)Nc1cccc(S(=O)(=O)C(F)(F)F)c1 [Example 256, 2-((2′-fluoro-4′-methoxy-5′-(((1S,2R,3S,4R)-3-((3-((trifluoromethyl)sulfonyl)phenyl)carbamoyl)bicyclo[2.2.1]heptan-2-yl)carbamoyl)-[1,1′-biphenyl]-4-yl)oxy)-2-methylpropanoic acid] | 0.050 | 8.1 | 12 | < 7 | 99 | 250 |
| COc1cc(F)c(-c2ccc(OCC(=O)O)cc2)cc1C(=O)N[C@@H]1[C@H]2CC[C@H](C2)[C@@H]1C(=O)Nc1cccc(S(=O)(=O)C(F)(F)F)c1 [Example 257, 2-((2′-Fluoro-4′-methoxy-5′-(((1S,2R,3S,4R)-3-((3-((trifluoromethyl)sulfonyl)phenyl)carbamoyl)bicyclo[2.2.1]heptan-2-yl)carbamoyl)-[1,1′-biphenyl]-4-yl)oxy)acetic acid] | 0.35 | 16 | 9.5 | > 1000 | 96 | 59 |
| COc1cc(F)c(-c2ccc(/C=C/C(=O)O)nc2)cc1C(=O)N[C@@H]1[C@H]2CC[C@H](C2)[C@@H]1C(=O)Nc1cccc(S(=O)(=O)C(F)(F)F)c1 [Example 260, (E)-3-(5-(2-Fluoro-4-methoxy-5-(((1S,2R,3S,4R)-3-((3-((trifluoromethyl)sulfonyl)phenyl)carbamoyl)bicyclo[2.2.1]heptan-2-yl)carbamoyl)phenyl)pyridin-2-yl)acrylic acid] | 0.57 | 69 | 69 | 360 (≈ 238 µg/mL) | 108 | – |
| COc1cc(F)c(-c2ccc(C[C@@H](N)C(=O)O)cc2)cc1C(=O)N[C@@H]1[C@H]2CC[C@H](C2)[C@@H]1C(=O)Nc1cccc(S(=O)(=O)C(F)(F)F)c1 [Example 291, (R)-2-Amino-3-(2′-fluoro-4′-methoxy-5′-(((1S,2R,3S,4R)-3-((3-((trifluoromethyl)sulfonyl)phenyl)carbamoyl)bicyclo[2.2.1]heptan-2-yl)carbamoyl)-[1,1′-biphenyl]-4-yl)propanoic acid] | <1.2 | 18 | 22 | 13 (≈ 8.81 µg/mL) | 106 | 370 |
| COc1cc(F)c(-c2cccc(CC(=O)O)c2)cc1C(=O)N[C@@H]1CCC[C@@H]1C(=O)Nc1cccc(S(=O)(=O)C(F)(F)F)c1 [Example 318] | 0.55 | 13 | 37 | 710 (≈ 442 µg/mL) | 89 | 600 |
| COc1cc(F)c(-c2cccc(CCC(=O)O)c2)cc1C(=O)N[C@@H]1CCC[C@@H]1C(=O)Nc1cccc(S(=O)(=O)C(F)(F)F)c1 [Example 319] | 0.44 | 18 | 29 | 380 (≈ 242 µg/mL) | 79 | 750 |
| COc1cc(F)c(-c2ccc(CCC(=O)O)cc2)cc1C(=O)N[C@@H]1CCC[C@@H]1C(=O)Nc1cccc(S(=O)(=O)C(F)(F)F)c1 [Example 321] | 0.45 | 33 | 59 | 950 (≈ 605 µg/mL) | 101 | 340 |
| COc1cc(F)c(O[C@H]2CC[C@@](F)(C(=O)O)CC2)cc1C(=O)N[C@@H]1[C@H]2CC[C@H](C2)[C@@H]1C(=O)Nc1cccc(S(=O)(=O)C(F)(F)F)c1 [Example 416] | 1.2 | 9.9 | 10 | > 1000 | 103 | 320 |
| O=C(N[C@@H]1[C@H]2CC[C@H](C2)[C@@H]1C(=O)Nc1cccc(S(=O)(=O)C(F)(F)F)c1)c1cc(O[C@H]2CC[C@@H](C(=O)O)CC2)c(F)cc1F [Example 430] | 3 | 61 | 22 | 760 (≈ 490 µg/mL) | 101 | > 230 |
| COc1cc(F)c(-c2ccc(C(N)=O)cc2)cc1C(=O)N[C@@H]1[C@H]2CC[C@H](C2)[C@@H]1C(=O)Nc1cccc(S(=O)(=O)C(F)(F)F)c1 [Example 434, 6-Fluoro-4-methoxy-N3-((1S,2R,3S,4R)-3-((3-((trifluoromethyl)sulfonyl)phenyl)carbamoyl)bicyclo[2.2.1]heptan-2-yl)-[1,1′-biphenyl]-3,4′-dicarboxamide] | <0.36 | 110 | 13 | 130 (≈ 82.4 µg/mL) | 82 | 590 |
| COc1cc(F)c(O[C@H]2CC[C@H](NS(C)(=O)=O)CC2)cc1C(=O)N[C@@H]1[C@H]2CC[C@H](C2)[C@@H]1C(=O)Nc1cccc(S(=O)(=O)C(F)(F)F)c1 [Example 460, (1R,2S,3R,4S)-3-(4-fluoro-2-methoxy-5-(((1r,4R)-4-(methylsulfonamido)cyclohexyl)oxy)benzamido)-N-(3-((trifluoromethyl)sulfonyl)phenyl)bicyclo[2.2.1]heptane-2-carboxamide] | 0.32 | 300 | 47 | 2 (≈ 1.41 µg/mL) | 103 | 370 |
| COc1cc(Br)c(O[C@H]2CC[C@@H](C(=O)O)CC2)cc1C(=O)N[C@@H]1[C@H]2CC[C@H](C2)[C@@H]1C(=O)Nc1cccc(S(=O)(=O)C(F)(F)F)c1 [Example 464, (1S,4s)-4-(2-Bromo-4-methoxy-5-(((1S,2R,3S,4R)-3-((3-((trifluoromethyl)sulfonyl)phenyl)carbamoyl)bicyclo[2.2.1]heptan-2-yl)carbamoyl)phenoxy)cyclohexane-1-carboxylic acid] | 0.54 | 57 | 30 | 200 (≈ 144 µg/mL) | 104 | 64 |
| COc1cc(C)c(O[C@H]2CC[C@@H](C(=O)O)CC2)cc1C(=O)N[C@@H]1[C@H]2CC[C@H](C2)[C@@H]1C(=O)Nc1cccc(S(=O)(=O)C(F)(F)F)c1 [Example 465, (1S,4s)-4-(4-Methoxy-2-methyl-5-(((1S,2R,3S,4R)-3-((3-((trifluoromethyl)sulfonyl)phenyl)carbamoyl)bicyclo[2.2.1]heptan-2-yl)carbamoyl)phenoxy)cyclohexane-1-carboxylic acid] | 0.76 | 74 | 36 | 300 (≈ 196 µg/mL) | 97 | 120 |
| COc1ccc(O[C@H]2CC[C@@H](C(=O)O)CC2)cc1C(=O)N[C@@H]1[C@H]2CC[C@H](C2)[C@@H]1C(=O)Nc1cccc(S(=O)(=O)C(F)(F)F)c1 [Example 466, (1S,4s)-4-(4-Methoxy-3-(((1S,2R,3S,4R)-3-((3-((trifluoromethyl)sulfonyl)phenyl)carbamoyl)bicyclo[2.2.1]heptan-2-yl)carbamoyl)phenoxy)cyclohexane-1-carboxylic acid] | 2.1 | 37 | 29 | > 1000 | 106 | 93 |
